In ChEMBL document CHEMBL1909515, “Discovery of a new type inhibitor of human glyoxalase I by myricetin-based 4-point pharmacophore” (Bioorg Med Chem Lett, 2011):
Activity calls are given as the source filed them. The rule behind the calls is not given here.

Key:
[1] = target: T1, Lactoylglutathione lyase (Homo sapiens, UniProt Q04760); assay: Inhibition of recombinant human His-tagged glyoxalase 1 expressed in Escherichia coli BL21 assessed as formation of S-D-lactoylglutathione after 5 mins by spectrophotometric method
Target sequence in this assay (Q04760 whole entry): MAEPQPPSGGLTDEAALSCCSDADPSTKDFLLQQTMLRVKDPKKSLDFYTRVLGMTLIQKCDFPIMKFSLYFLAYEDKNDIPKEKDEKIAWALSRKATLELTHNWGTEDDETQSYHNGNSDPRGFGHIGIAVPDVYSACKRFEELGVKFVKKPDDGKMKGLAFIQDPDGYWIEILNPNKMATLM

[2] = target: T1, Lactoylglutathione lyase; assay: Inhibition of human recombinant His-tagged glyoxalase 1 expressed in Escherichia coli BL21 assessed as formation of S-D-lactoylglutathione at 100 uM after 5 mins by spectrophotometric method
Target sequence in this assay (Q04760 2-184 limits assumed): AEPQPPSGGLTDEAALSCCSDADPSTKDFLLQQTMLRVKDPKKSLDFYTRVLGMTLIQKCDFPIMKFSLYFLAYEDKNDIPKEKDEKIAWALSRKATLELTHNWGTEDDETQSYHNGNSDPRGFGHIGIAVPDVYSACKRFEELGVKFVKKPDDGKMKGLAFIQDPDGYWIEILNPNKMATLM

[3] = system: HL-60; assay: Antiproliferative activity against human HL60 cells at 300 uM; assay type: functional, cell-based
[4] = system: HL-60; assay: induction of apoptosis in human HL60 cells at 300 uM; assay type: functional, cell-based

Compound	IC50 [1] [µM]	inhibition [2]	Activity [3]	Activity [4]
COc1ccc(C(=O)Nc2sc3c(c2C(=O)O)CCCC3)cc1	54.6	Active		
COc1ccc(/C=C(/CC(=O)O)c2nc3ccccc3s2)cc1	2	Active	Active	Active
COc1ccc(C(=O)Nc2ccccc2C(=O)O)cc1	93.2	Active		
